In one data set the test system is A549. Put plainly: Cell viability assay, 3D hanging drop cell culture (CellTiter GLO 3D). Type of data set: cell-based. As to conditions: Homo sapiens; A549, 3D hanging drop cell culture, 72 h; ±SD, N = 2; read-out: IC50 antitumor activity A549 3D. On the procedure:
(§1) Compounds are diluted 1:3. 500 nL (for 2 D cell culture) or 400 nL (for 3 D cell culture) of compound were transferred from mother plate to test plate by using Mosquito (TTP labtech). DMSO percentage in test concentrations was 0.5 − 1.0%. Starting concentration of the test compounds and standard compound doxorubicin was 50 µM (2 D cell culture) or 100 µM (3 D cell culture).
(§2) Cells were grown in 96 well Perfecta 3 D hanging drop plates 5000 cell/well for 4 days until spheres were formed (and checked under the microscope). After sphere formation cells were treated with compounds followed by 72 h incubation. Cell viability assay was performed according to the manufacturer’s instruction, using CellTiter GLO 3 D for 3 D cell culture (Promega); cell incubation was 5 min on the shaker followed by 25 min incubation in the dark. Plates were read using PE EnVision luminescence.
(§3) Calculation of IC50 data, curves and QC analysis is made by using Excel tools and GraphPadPrism software (La Jolla, CA), v. […] QC criteria parameters (Z', S:B, R2, HillSlope) were checked for every IC50 curve.
On the technique in general: In ATP-based viability assays light output follows the ATP content of the culture.

The test system of data set [1] is HCC827. The data set is described as above. The format is cell-based. As to conditions: Homo sapiens; HCC827, 3D hanging drop cell culture, 72 h; ±SD, N = 2; read-out: IC50 antitumor activity HCC827 3D. On the procedure: as §1, §2, §3
The next data set relates to NCI-H358. The description is as above. The format is cell-based. As to conditions: Homo sapiens; NCI-H358, 3D hanging drop cell culture, 72 h; ±SD, N = 2; read-out: IC50 antitumor activity NCI-H358 3D. As for the experimental part:
as §1, §2, §3

Data set [2] concerns HCC827. Description: BrdU proliferation assay, 3D cell culture. As to conditions: Homo sapiens, HCC827, 3D cell culture, ±SD, N = 2. Type of data set: cell-based. On the procedure: as §2
Proliferation assay was performed using Cell Proliferation ELISA, BrdU (Sigma, St. Louis, MO, USA). Briefly, 48 h hours after compound addition, 10 µM of BrdU was added to each well and incubated for following 24 h. After incubation, single cell suspension was made for 3 D cell culture in the new 96 well plate. Plates were centrifuged and supernatants were removed from each plate (for 2 D and 3 D cell culture) followed by 60 min incubation at 60° C. The rest of the proliferation assay was performed according to the manufacturer instructions.
as §3

A further data set in a line: Kinetic solubility. The format is physicochemical. As to conditions: aqueous buffer, kinetic from dmso stock, phosphate buffer 50 mM, pH 7.4, 1% DMSO, 37 °C. As for the experimental part: Test compounds and assay controls (sulfaphenazole and α-naphtoflavone) were serially diluted in DMSO by factor 3.3x, 3x, 3.3x and 3x, resulting in a total of 5 different concentrations. Phosphate buffer (50 mM, pH 7.4) was spiked with diluted test compounds and controls with final concentration range in the assay as follows: 100, 30, 10, 3 and 1 µM (1% DMSO). Plate was then incubated by gentle shaking (200–300 rpm) for 1 h and 45 min at 37 °C. After additional15 min on room temperature (without shaking), plate absorbance at 620 nm was measured with microplate reader Tecan, Infinite F500 (total incubation time = 2 h).

Data set [3] can be described thus: Metabolic stability in liver microsomes. Type of data set: in vitro ADME. As to conditions: 60 min. As for the experimental part:
Tested compounds (final concentration of 1 µM, 0.1% DMSO), as well as testosterone and propranolol as positive controls and caffeine as negative control were incubated in phosphate buffer (50 mM, pH 7.4) for 60 min at 37 °C with liver microsomes (human and mouse) in the absence and presence of the NADPH cofactor. The NADPH generating system was prepared in phosphate buffer and consisted of nicotinamide adenine dinucleotide phosphate (NADP, 0.38 mM), glucose-6-phosphate (1.49 mM), glucose-6-phosphate dehydrogenase (1.5 U) and magnesium chloride (0.1 mM). Aliquots were taken at different time points (0, 10, 20, 30, 45 and 60 min) and reaction was terminated by addition of a MeCN/MeOH (2:1) mixture, containing diclofenac as internal standard. Samples were then centrifuged (at 4500 rpm, at 4 °C, for 30 min) and resulting supernatants were subjected to LC-MS/MS analysis. The in vitro half life (t½) was determined from the slope of the linear regression of ln % parent compound remaining versus incubation time. In vitro intrinsic clearance, expressed as µl/min/mg liver, was determined from in vitro half life (t½) and normalised for the protein concentration in the incubation mixture. Predicted in vivo hepatic clearance was determined from in vitro intrinsic clearance assuming 52.5 mg of protein/g of liver and using constant values for liver weight/body weight [g/kg] (25.7 for human, 87.5 for mouse) and liver blood flow (LBF) [ml/min/kg] (21 for human and 131 for mouse).
All ADME samples were analysed on a Sciex API 4000 or Sciex API4500 Triple Quadrupole Mass Spectrometer (Sciex, Framingham, MA, USA) coupled to a UHPLC System (Shimadzu Nexera X2; Shimadzu, Kyoto, Japan). Samples were injected onto an UPLC column (HALO2 C18, 2.1 × 20 mm, 2 µm or Phenomenex Luna Omega Polar C18, 30 × 2.1 mm, 1.6 µm) and eluted with a gradient at temperature of 50 °C. The mobile phase was composed of acetonitrile (with 0.1% formic acid) and 0.1% formic acid in deionised water. A total run time was 1 or 1.5 min, with the flow rate of 0.7 ml/min (under gradient conditions). A positive ion mode with turbo spray, an ion source temperature of 500 °C and a dwell time of 150 ms were utilised for mass spectrometric detection. Multiple reaction monitoring (MRM) was used at the specific transitions for each compound/control tested: compound 5c: 361.9 → 304.9; compound 5d: 344.8 → 287.9; compound 5e: 349.8 → 292.9; compound 5 g: 350.8 → 293.9; compound 5 h: 344.0 → 286.9; compound 6a: 276.9 → 220.0; compound 5 b: 319.0 → 262.0; compound 6 b: 302.1 → 245.1; compound 6c: 344.9 → 288.0; compound 6d: 333.0 → 276.0; compound 6e: 316.1 → 259.0; compound 6f: 327.1 → 270.0; compound 6 g: 377.1 → 320.1; testosterone: 289.3→ 97.1; propranolol: 260.1 → 182.8; caffeine: 195.2 → 138.1; acebutolol: 337.2 → 116.2, nicardipine: 480.2 → 315.0; verapamil: 455.4 → 165.1; amprenavir: 506.2 → 245.4; diclofenac: 296.1 → 213.7 or 296.2 → 215.3; eucatropine: 292.2 → 109.1; benfluorex: 352.1 → 230.3, and warfarin: 309.2 → 163.2
A general note: Liver microsomes are a subcellular fraction often used to study metabolism.

One may read the IC50 as the concentration that gives 50% inhibition. As usually defined, the solubility (kinetic) is the concentration staying in solution when a stock, usually in DMSO, is diluted into the medium.

On to `c1ccc2cc(-c3nc4cc(C5=NCCCN5)ccc4[nH]3)ccc2c1` [Compound 6f, 2-(Naphthalene-2-yl)-5(6)–(3,4,5,6-tetrahydropyrimidin-1-ium-2-yl)benzimidazole chloride], for which the IC50 in the data set on A549, with HCC827 [1], in the data set with NCI-H358 and in the data set with HCC827 [2] was more than 100 µM each time. The molecule further displayed a solubility (kinetic) at 2 h in the data set “Kinetic solubility” of 30 to 100 µM. The “Microsomes (1 µM) Predicted in vivo hep CL, Human” value in data set [3] was less than 30 %LBF. Further, the “Microsomes (1 µM) Predicted in vivo hep CL, Mouse” value in data set [3] is listed as 77 %LBF.

`Cl.FC(F)(F)c1ccc(-c2nc3ccc(C4=NCCCN4)cc3s2)cc1` [Compound 5c, 2–(4-Trifluoromethylphenyl)-6–(3,4,5,6-tetrahydropyrimidin-1-ium-2-yl)benzothiazole chloride]: the IC50 in the data set on A549 is 16 ± 0.65 µM; in the data set with HCC827 [1] it was 12 ± 0.16 µM; with NCI-H358, 34 ± 0.7 µM; in the data set with HCC827 [2], 21 ± 1.41 µM. Moreover, in the data set “Kinetic solubility”, the kinetic solubility at 2 h was more than 100 µM. Further, the “Microsomes (1 µM) Predicted in vivo hep CL, Human” value in data set [3] was less than 30 %LBF. Also, the “Microsomes (1 µM) Predicted in vivo hep CL, Mouse” value in data set [3] is reported as less than 30 %LBF.

As to `Cl.N#Cc1ccc(-c2nc3ccc(C4=NCCCN4)cc3s2)cc1` [Compound 5b, 2–(4-Cyanophenyl)-6–(3,4,5,6-tetrahydropyrimidin-1-ium-2-yl)benzothiazole chloride], the IC50 is 60 ± 1.44 µM in the data set with A549, more than 100 µM in the data set with HCC827 [1], more than 100 µM with NCI-H358 and more than 100 µM with HCC827 [2]. In “Kinetic solubility”, this molecule yielded a solubility (kinetic) at 2 h of more than 100 µM. Also, the “Microsomes (1 µM) Predicted in vivo hep CL, Human” value in data set [3] is given as less than 30 %LBF. Also, in data set [3], the “Microsomes (1 µM) Predicted in vivo hep CL, Mouse” value is reported as less than 30 %LBF.

The record behind these values is PMC7801115, “Preclinical in vitro screening of newly synthesised amidino substituted benzimidazoles and benzothiazoles” (Journal of Enzyme Inhibition and Medicinal Chemistry, 2021).
